Key:
[1] = system: KPC cells; assay: CellTiter-Glo Luminescent Cell Viability Assay in KPC cells; format: cell-based, murine; conditions: ADUS-100 5 μM, TA 12.5 nM or 6.25 nM, single or combined, viability 24 h after treatment (FIG. 7B)
Description: (§1) FIG. 7: Inhibition of SERCA2 (ATP2A2) in combination of STING agonist increases inflammatory responses in cancer cell lines. • (A) The KPC murine pancreatic cell line was cultured 24 h prior to 6 h stimulation with ADUS-100 (5 μM) in combination or not with 12.5 nM or 6.25 nM TA. Graphs present fold increase Cxcl10 mRNA levels, an interferon responding gene, as compared to unstimulated cells. • (B) KPC cells were cultured 24 h prior 6 h stimulation with ADUS-100 (5 μM) in combination or not with 12.5 nM or 6.25 nM TA. Graphs present viability level, as compared to unstimulated cells. • (C) The Panco2 murine pancreatic cell line was cultured 24 h prior to 6 h stimulation with ADUS-100 (5 μM) in combination or not with 12.5 nM or 6.25 nM TA. Graphs present fold increase Cxcl10 mRNA levels, an interferon responding gene, as compared to unstimulated cells. • (D) Panco2 cells were cultured 24 h prior to 6 h stimulation with ADUS-100 (5 μM) in combination or not with 12.5 nM or 6.25 nM TA. Graphs present viability level, as compared to unstimulated cells.
(§2) Murine embryonic fibroblasts (MEF) and murine pancreatic cancer cell lines (KPC and Panc02) were maintained in Dulbecco's modified Eagle's medium (DMEM) supplemented with 10% fetal bovine serum (FBS), 1% penicillin/streptomycin and 1% glutamine. […]

[2] = system: mouse embryonic fibroblasts (MEFs); assay: CellTiter-Glo Luminescent Cell Viability Assay in MEFs; format: cell-based; conditions: MEF; ADUS-100 5 μM, TA 12.5 nM or 6.25 nM, single or combined; viability 24 h after treatment (FIG. 6B)
Description: (§3) FIG. 6: Inhibition of SERCA2 (ATP2A2) in combination with STING agonist increases inflammatory responses in mouse embryonic fibroblasts (MEFs). • (A) MEFs were cultured for 24 h prior to 6 h stimulation with ADUS-100 (5 μM) in combination or not with 12.5 nM or 6.25 nM of thapsigargin (TA). Graphs present fold increase lfnβ mRNA levels, as compared to unstimulated cells. • (B) MEFs were cultured for 24 h prior to 6 h stimulation with ADUS-100 (5 μM) in combination or not with 12.5 nM or 6.25 nM of TA. Graphs present viability level, as compared to unstimulated cells.
(§4) Murine embryonic fibroblasts (MEF) and murine pancreatic cancer cell lines (KPC and Panc02) were maintained in Dulbecco's modified Eagle's medium (DMEM) supplemented with 10% fetal bovine serum (FBS), 1% penicillin/streptomycin and 1% glutamine.
(§5) Cells were treated during 6 h with ADUS-100 (5 μM) in presence or not of thapsigargin (TA) at 12.5 nM or 6.25 nM in complete medium.
The CellTiter-Glo® Luminescent Cell Viability Assay was used to determine the number of viable cells 24 h after treatment.

[3] = system: Panc02 cells; assay: CellTiter-Glo Luminescent Cell Viability Assay in Panc02 cells; format: cell-based, murine; conditions: ADUS-100 5 μM, TA 12.5 nM or 6.25 nM, single or combined, viability 24 h after treatment (FIG. 7D)
Description: as §1, §2

[4] = system: mice; assay: In vivo toxicity, subcutaneous injection, macroscopic observation of skin at the injection site; conditions: 3 times one injection every 3 day, TA 50 nM, ADUS-100 5 μM, or both (Combi), data not shown
[5] = system: WT-MEF cells; assay: RT-qPCR of Ifnβ, Cxcl10 and Isg15 mRNA in WT-MEF stimulated with DMXAA; format: cell-based, murine; conditions: WT-MEF under DMXAA stimulation (200 μM, 2 h) in combination with CDN-1163 (FIG. 4A)
Description: WT-MEF cells were cultured 24 h prior 2h stimulation with DMXAA (200 μM) in combination or not with CPA (A-C) or thapsigargin (D-E). Graphs present fold increase Ifnβ, Cxcl10 and Isg15 mRNA levels, as compared to unstimulated cells. Graphs present mean value from duplicates.
WT-MEF cells were cultured 24 h prior 2 h stimulation with DMXAA (200 μM) in combination or not with CDN-1163 (A-C). Graphs present fold increase […], Cxcl10 and Isg15 mRNA levels, as compared to unstimulated cells. Graphs present mean value from duplicates.
(§6) Wild type murine embryonic fibroblasts (WT-MEF) and MEF-Trex^−/−, were maintained in Dulbecco's modified Eagle's medium (DMEM) supplemented with 10% fetal bovine serum (FBS), 1% penicillin/streptomycin and 1% glutamine.
(§7) RNA was extracted using Trizol (Invitrogen) and treated with TURBO DNase (Ambion) according to manufacturer's protocols. Reverse transcription (SuperScript IV reverse transcriptase, Invitrogen) and qPCR using specific primers were performed using SYBR Green Master Mix (Takara) and LightCycler 480 cycler (Roche). mRNA levels were normalized to HSP90 mRNA levels. […]
To this aim, WT-MEFs were treated with the CDN-1163 SERCA2 agonist, and interferon response gene levels were assessed (FIG. 4).

[6] = biological target: SERCA2 (Homo sapiens, UniProt P16615); conditions: read-out: IC50 in vitro for SERCA2 (for calcium entry); cited from earlier work
Sequence of SERCA2 (P16615 whole entry): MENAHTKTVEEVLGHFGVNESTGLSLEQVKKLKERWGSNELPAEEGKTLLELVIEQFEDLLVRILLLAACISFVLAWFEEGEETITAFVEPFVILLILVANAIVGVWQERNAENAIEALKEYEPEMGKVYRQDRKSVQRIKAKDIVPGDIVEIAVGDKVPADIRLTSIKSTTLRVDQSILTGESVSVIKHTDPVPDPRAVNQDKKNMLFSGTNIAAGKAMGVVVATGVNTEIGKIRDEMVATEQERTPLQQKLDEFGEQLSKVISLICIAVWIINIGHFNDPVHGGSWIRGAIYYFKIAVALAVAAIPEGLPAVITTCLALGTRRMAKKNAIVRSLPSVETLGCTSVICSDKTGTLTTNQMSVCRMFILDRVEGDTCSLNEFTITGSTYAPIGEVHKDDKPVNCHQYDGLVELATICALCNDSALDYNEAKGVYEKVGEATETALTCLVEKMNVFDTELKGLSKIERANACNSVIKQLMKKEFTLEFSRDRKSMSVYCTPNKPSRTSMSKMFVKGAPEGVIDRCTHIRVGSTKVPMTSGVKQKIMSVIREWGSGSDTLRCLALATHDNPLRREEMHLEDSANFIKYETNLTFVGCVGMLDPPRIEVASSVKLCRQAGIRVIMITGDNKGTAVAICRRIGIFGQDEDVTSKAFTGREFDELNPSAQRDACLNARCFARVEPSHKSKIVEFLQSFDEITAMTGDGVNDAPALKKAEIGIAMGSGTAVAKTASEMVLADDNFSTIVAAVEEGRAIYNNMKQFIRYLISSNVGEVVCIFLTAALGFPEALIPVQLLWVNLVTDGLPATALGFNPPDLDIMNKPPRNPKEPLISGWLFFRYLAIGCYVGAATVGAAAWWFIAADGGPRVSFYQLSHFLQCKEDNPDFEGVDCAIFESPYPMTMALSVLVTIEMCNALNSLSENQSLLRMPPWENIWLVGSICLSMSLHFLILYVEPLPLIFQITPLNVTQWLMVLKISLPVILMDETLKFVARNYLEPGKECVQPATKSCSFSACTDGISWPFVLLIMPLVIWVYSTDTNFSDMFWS

[7] = system: Trex1 KO MEFs; assay: RT-qPCR of Ifnβ, Cxcl10 and Isg15 mRNA in Trex1 KO MEF (model of chronic STING activation); format: cell-based, murine; conditions: Trex1-deficient MEF, 2 h treatment (FIG. 2)
Description: MEF^Trexl−/− cells were treated or not with CPA (A-C) or thapisgargin (D-E) for 2 h. Graphs present fold increase Ifnβ, Cxcl10 and Isg15 mRNA levels, as compared to unstimulated cells. Graphs present mean value from duplicates (A-C) or average of 2 independent experiments (D-F). Error bars: standard deviation.
as §6
RNA was extracted using Trizol (Invitrogen) and treated with TURBO DNase (Ambion) according to manufacturer's protocols. Reverse transcription (SuperScript IV reverse transcriptase, Invitrogen) and qPCR using specific primers were performed using SYBR Green Master Mix (Takara) and LightCycler 480 cycler (Roche). mRNA levels were normalized to HSP90 mRNA levels.
WT-MEF stimulated or not with DMXAA, a murine STING ligand which triggers STING-dependent inflammatory responses (FIG. 1); and Trex I KO MEF which is a model of chronic STING activation (FIG. 2).
WT-MEF or Trex I KO MEF were treated for 2 h with SERCA2 inhibitors thapsigargin (TA) or CPA.

[8] = system: Panc02 murine pancreatic cell line; assay: RT-qPCR of Cxcl10 mRNA in Panc02 cells stimulated with ADUS-100 with or without thapsigargin; format: cell-based; conditions: Panc02, 6 h, TA 12.5 nM or 6.25 nM in combination with ADU-S100 5 μM (FIG. 7C)
Description: as §1, §2

[9] = system: mouse embryonic fibroblasts (MEFs); assay: RT-qPCR of Ifnβ mRNA in MEFs stimulated with ADUS-100 with or without thapsigargin; format: cell-based; conditions: MEF, 6 h, TA 12.5 nM or 6.25 nM in combination with ADU-S100 5 μM (FIG. 6A)
Description: as §3, §4, §5, §7

[10] = system: KPC murine pancreatic cell line; assay: RT-qPCR of Cxcl10 mRNA in KPC cells stimulated with ADUS-100 with or without thapsigargin; format: cell-based; conditions: 6 h, TA 12.5 nM or 6.25 nM in combination with ADU-S100 5 μM (FIG. 7A)
Description: as §1, §2

Row | SMILES | cell toxicity (viability level) [1] | cell toxicity (viability level) [2] | cell toxicity (viability level) [3] | macroscopic observation of skin at the injection site (signs of toxicity) [4] | IFN-β gene expression [5] | IC50 [6] [nM] | CXCL10 mRNA levels [7] | IFN-β mRNA levels [7] | ISG15 mRNA levels [7] | induced inflammation marker CXCL10 cytokine [8] | induced inflammation marker Interferon-β (IFN-β) [9] | induced inflammation marker CXCL10 cytokine [10]
1 | Nc1ncnc2c1ncn2[C@@H]1O[C@@H]2COP(=O)([S-])O[C@@H]3[C@H](O)[C@@H](COP([O-])(=S)O[C@H]2[C@H]1O)O[C@H]3n1cnc2c(N)ncnc21.[Na+].[Na+] (some centres unmarked) [ADU-S100] | low cell toxicity | low cell toxicity | low cell toxicity | did not display signs of toxicity | – | – | – | – | – | – | – | –
2 | Cc1ccc2cccc(NC(=O)c3ccc(OC(C)C)cc3)c2n1 [CDN-1163, N-(2-methylquinolin-8-yl)-4-propan-2-yloxybenzamide] | – | – | – | – | inhibits | – | – | – | – | – | – | –
3 | CC(=O)C1=C(O)[C@@H]2[C@H]3c4c[nH]c5cccc(c45)C[C@H]3C(C)(C)N2C1=O [CPA, (6aR,11aS,11bR)-10-Acetyl-11-hydroxy-7,7-dimethyl-2,6,6a,7,11a,11b-hexahydro-9H-pyrrolo[1′,2′:2,3]isoindolo[4,5,6-cd]indol-9-one] | – | – | – | – | – | < 2500 | increase | increase | increase | – | – | –
4 | C/C=C(/C)C(=O)O[C@H]1C(C)=C2[C@H]([C@@H]1OC(=O)CCCCCCC)[C@@](C)(OC(C)=O)C[C@H](OC(=O)CCC)[C@@]1(O)[C@H]2OC(=O)[C@@]1(C)O [Thapsigargin, (3S,3aR,4S,6S,6aR,7S,8S,9bS)-6-(Acetyloxy)-4-(butyryloxy)-3,3a-dihydroxy-3,6,9-trimethyl-8-{[(2Z)-2-methylbut-2-enoyl]oxy}-2-oxo-2,3,3a,4,5,6,6a,7,8,9b-decahydroazuleno[4,5-b]furan-7-yl octanoate] | low cell toxicity | low cell toxicity | low cell toxicity | did not display signs of toxicity | – | < 15 | increase | increase | increase | potentiation | potentiation | potentiation

Reference: patent US20240139219A1, “COMBINATION OF A SERCA2 INHIBITOR AND A STING ACTIVATOR FOR USE IN TREATING AND/OR PREVENTING CANCER” (Centre national de la recherche scientifique, priority 2021, published 2024)
